1 compound from patent publication US9872919B2, “Prodrugs for selective anticancer therapy” (THE RESEARCH FOUNDATION FOR THE STATE UNIVERSITY OF NEW YORK, priority 2012, dated 2018) can be followed below.

In series [1] the test system is malignant cell lines with high HDAC and CTSL activity (COGA-10, HCA-7, HT29, HCT116). Description: MTS cell viability assay, malignant colon cancer cell lines. Format: cell-based, human. The settings on record: 5 d, panel of colon cell lines, given as a range, read-out: IC50, inhibition of cell viability. On the procedure: (§1) FIG. 13. Inhibition of cell viability by BKAc-Puro is presented in dose-response curve format for the same cell lines as in FIG. 8. The cell lines were treated with DMSO or the indicated doses of agent (4.22, 8.44, 16.9, 33.8, 67.5, or 135 μM) for 5 d followed by MTS assay. Data represent mean values of triplicate mesurements±s.d. (n=3). IC50 values were fit by logistic regression.
(§2) Cell number was determined by cell counting using improved Neubauer hemacytometer. Cell viability was calculated as the number of viable cells divided by the total number of cells using Trypan Blue Stain (Invitrogen) to distinguish non-viable cells. Data were obtained from duplicated samples with quadruplicate measurements. MTS based cell viability assay was performed using CellTiter 96 Aqueous Cell Proliferation Assay (Promega) according to the manufacturer's instruction. […] After additional 2-3 h incubation, the absorbance of the formazan at 490 nm was measured by the microplate reader. […] Determination of non-viable cells using PI staining was performed by adding 1 μg/ml of PI solution (Sigma) to the cell culture, prior to the examination under fluorescence microscopy (Axiovert 3, Carl Zeiss) through a×32 objective equipped with a digital imaging processor (Infinity 3, Lumenera).

Series [2] has as its system non-malignant Caco-2 cells. Description: MTS cell viability assay, Caco-2. It counts as cell-based, human. On the procedure:
as §1, §2

Series [3] concerns CCD841-CoN cells. Put plainly: MTS cell viability assay, normal colon cells. Format: cell-based, human. The settings on record: negative control in pancreatic and prostate panels. On the procedure:
FIG. 15. Inhibition of cell viability by BKAc-Puro. The cell lines were grown and analyzed as in FIG. 12.
FIG. 18. Selective cytotoxicity by BKAc-Puro on pancreatic cancer cells. Pancreatic cancer (BXPC-3 and Miapaca-2), colon cancer (HCT116 as a positive control sensitive to the drug), and normal colon (CCD841-CoN as a negative control) cells were grown and analyzed as in FIG. 13. BKAc-Puro can effectively cause cell death on pancreatic cancer cells (BXPC-3 and MiaPaca-2) that are known to resistant to conventional chemotherapeutic drugs including 5-FU and Gemicitabine.
FIG. 19. Selective cytotoxicity by BKAc-Puro on prostate cancer cells. Prostate cancer (PC-3, DU-145, and LNCaP), colon cancer (HCT116 as a positive control sensitive to the drug), and normal colon (CCD841-CoN as a negative control) cells were grown and analyzed as in FIG. 13. BKAc-Puro can effectively cause cell death on prostate cancer cells.
Cell number was determined by cell counting using improved Neubauer hemacytometer. Cell viability was calculated as the number of viable cells divided by the total number of cells using Trypan Blue Stain (Invitrogen) to distinguish non-viable cells. Data were obtained from duplicated samples with quadruplicate measurements. […] After additional 2-3 h incubation, the absorbance of the formazan at 490 nm was measured by the microplate reader. […]

In series [4] the test system is pancreatic cancer cells (BXPC-3 and MiaPaca-2). Put plainly: MTS cell viability assay, pancreatic cancer cell lines. It counts as cell-based, human. On the procedure:
FIG. 16. Anticancer effect of BKAc-Puro on pancreatic cell lines. The cell lines were treated with DMSO (vehicle), BKAc-Puro (54 μM), or Puro (4.2 μM) for 5 d followed by MTS assay. Normal Eph4 (non-pancreatic) cells are shown as control. Data represent mean values of triplicate mesurements±s.d.
FIG. 18. Selective cytotoxicity by BKAc-Puro on pancreatic cancer cells. Pancreatic cancer (BXPC-3 and Miapaca-2), colon cancer (HCT116 as a positive control sensitive to the drug), and normal colon (CCD841-CoN as a negative control) cells were grown and analyzed as in FIG. 13. […]
as §2, with “cells.” for “cells. Data were obtained from duplicated samples with quadruplicate measurements. MTS based cell viability assay was performed using CellTiter 96 Aqueous Cell Proliferation Assay (Promega) according to the manufacturer's instruction.”

In series [5] the test system is malignant colon cancer cells with high HDAC and CTSL activity. Put plainly: Cell number, trypan blue viability and PI staining, malignant colon cancer cells. The conditions noted are these: 54 μM. Format: cell-based, human. On the procedure: (§3) FIG. 9. The colon cancer cell lines were grown for 5 d either with vehicle control DMSO (gray symbols) or 54 μM BKAc-Puro (red and blue symbols), and cell number was determined at the indicated time points.
FIG. 10. The cell lines were grown as in FIG. 8, cell viability was determined by trypan blue at the indicated time points, and is presented as the percentage of live cells treated with vehicle control (gray symbols) or BKAc-Puro (red and blue symbols).
FIG. 11. The cell lines were grown as in FIG. 8, and dead cells were determined after 80 h by PI signal under fluorescent microscope. BF, bright field. PI, fluorescent PI channel.
FIG. 12. Selective cytotoxicity by BKAc-Puro. The cell lines were grown and analyzed as in FIG. 10. […]
as §2, with “cells.” for “cells. Data were obtained from duplicated samples with quadruplicate measurements. MTS based cell viability assay was performed using CellTiter 96 Aqueous Cell Proliferation Assay (Promega) according to the manufacturer's instruction.”

Series [6] relates to non-malignant Caco-2 cells. Description: Cell number determination, Caco-2. The settings on record: 54 μM, 5 d. Format: cell-based, human. On the procedure: as §3
as §2, with “instruction. Either 1 μl of DMSO alone or variable concentrations of BKAc-Puro or Puro in DMSO were added to the cell lines seeded at 5×10^4 cells per well in 96-well tissue culture plates in 100 μl of the growth medium, followed by 3-5 d incubation at 37° C. with 5% CO2 atmosphere.” for “instruction.”

The test system of series [7] is HCT116 xenograft tumors.
Text: HCT116 cells were implanted subcutaneously into female nude mice. When the developed tumors reached 200 mm^3, animals were intraperitoneally injected by the indicated dose of the compound or vehicle control (DMSO). Tumor volume was estimated by the equation vol=(a×b^2)/2, where vol, a, and b represent volume, the length of the major axis, and the length of the minor axis, respectively. […] (b) Body weight change during the treatment in a. Value is expressed in percent change compared to the day of the first treatment.
HCT116 cells were implanted subcutaneously into female nude mice. When palpable tumors reached 50-150 mm^3, animals were randomized and treated by the indicated dose of the compound or vehicle control (DMSO) via intraperitoneal injection. Tumor incidence is presented as number of mice developed tumor (volume>300 mm^3) after 2 weeks of daily treatment/number of mice treated. Tumor volume was estimated by the equation vol=(a×b^2)/2, where vol, a, and b represent volume, the length of the major axis, and the length of the minor axis, respectively.
The growth inhibitory effects of the compounds on size-matched xenografts are examined by subcutaneous implantation of HCT116 cells into nude mice. HCT116 cells are injected subcutaneously and allowed to develop palpable tumors (50-150 mm^3) before initiation of drug administration. Mice (5-10 animals per group) are treated with the vehicle (DMSO or PBS) or the prodrugs by intraperitoneal administration. […] Tumor volumes are approximated by using the equation vol=(a×b^2)/2, where vol, a, and b represent volume, the length of the major axis, and the length of the minor axis, respectively. Relative tumor volume is calculated by dividing tumor volume by that on day 0 (the day of treatment initiation). The weight of the mice is checked to monitor unfavorable effects by the compounds being tested and upon any indication of distress the mice is humanely euthanized.

Regarding `COc1ccc(C[C@H](NC(=O)[C@H](CCCCNC(C)=O)NC(=O)OC(C)(C)C)C(=O)N[C@H]2[C@@H](O)[C@H](n3cnc4c(N(C)C)ncnc43)O[C@@H]2CO)cc1` [BKAc-Puro, N-[3′-(α-Amino-p-methoxyhydrocinnamamido)-3′-deoxy-N,N-dimethyldenosinyl]-N-α-(t-butoxycarbonyl)-N-ε-acetyl-L-lysineamide], the IC50 was around 10 µM in series [1] and above 135 µM in series [2] (MTS, 5 d, sufficient inhibition not achieved with doses up to 135 μM). Moreover, the “highest inactive dose relative to dose of parental Puro effective to these cells” value in series [2] (Caco-2, 135 μM BKAc-Puro vs parental Puro) is on record as “more than 30 times”. For the same compound, the “effect on normal colon cells” value in series [3] is on record as “relatively little effect”. Further, the “anticancer effect on cell viability” value in series [4] (54 μM, 5 d, MTS) is on record as “effective”. Further, the cell death result in series [4] (cells known to be resistant to 5-FU and Gemicitabine) is listed as “effectively caused cell death”. Also, the “cell proliferation (cell number)” value in series [5] (5 d, all four malignant cells) is recorded as “impaired the proliferation”; in series [6], “allowed them to proliferate to confluency”. In series [5] (colon cell line panel), the “cell death (trypan blue exclusion, morphology, PI staining)” value was “massive cell death wass detected only in the malignant cells”. In series [7] (200 mg/kg, intraperitoneal), the “tumor incidence (tumor volume above threshold after 2 weeks of daily treatment)” value is on record as “no tumors greater than 300 mm^2 were observed”. For the same compound, the tumor growth result in series [7] (intraperitoneal, tumors 200 mm^3 at start) is given as “inhibition of tumor growth”. The “toxicity in tumor incidence study” value in series [7] (mouse, in vivo) is given as “no toxicity was observed”.
